Data reported in patent publication EP0067910B1, “Compounds and compositions for treatment of ocular hypertension” (priority 1981, dated 1982).
Structures can show the parent of a compound that is named as a salt.

How the values were obtained:
[1] = human, in vivo
Procedure: The blood pressure and the heart rate of all subjects given the dipivaloyl a-methyl epinephrine were measured prior to and after administration of the drop. No decrease in blood pressure or heart rate was observed.

[2] = system: normal healthy volunteers; assay: Tonometry, tonography and pupil diameter after one drop to one eye of human subjects; assay type: in vivo; conditions: for intraocular pressures of the treated eyes: one drop of 0.1 percent (w/v), seven subjects
Procedure: Tonometry and tonography studies were performed on normal healthy volunteers using an instrument denominated The Alcon pneumatonograph, available from Alcon Laboratories, Forth Worth, Texas. One drop of proparacaine (0.5 percent w/v) was applied to each eye prior to taking tonometric readings. The tonometer was calibrated by a manometric standard prior to initiation of these studies and checked on an air standardizer on each day of use. […] Pupil diameters were measured under normal laboratory light.
Each drug discussed hereinafter was dissolved in sterile physiological saline.
The reported values are the means of the maximal responses based on the time courses of the responses in pairs of eyes of individual subjects. The numbers in parentheses denote the number of experimental subjects. Po (mm Hg) is the intraocular pressure in seated subjects, C (µl min^-1 mm Hg^-1) is the outflow facility, and F (ul min^-1) is the rate of formation of the aqueous humor (subject supine).

intraocular pressure = conditions: Annals of Ophthalmology, 3, No. 3, 282 (March 1971); cited from earlier work
conscious rabbits = assay: Ocular response (intraocular pressure, pupil diameter) to a single topical application to one eye of conscious rabbits; assay type: in vivo; conditions: for Intraocular Pressure (mm Hg) Mean Δ Control-Exp. / Intraocular Pressure (mm Hg) Treated Eye: single application; for intraocular pressure / pupillary dilation: in 0.9 percent (w/v) physiological saline, summary of Tables IIIA, IIIB, IV and V; for Intraocular Pressure (mm Hg) Mean Δ: control eye minus exp. eye; for Intraocular Pressure (mm Hg) Mean Δ / Pupil Diameter (mm) Mean Δ / Intraocular Pressure (mm Hg) Exp. Eye / Pupil Diameter (mm) Exp. Eye: mean of maximal responses; for Pupil Diameter (mm) Mean Δ: difference between pairs of eyes; for Intraocular Pressure (mm Hg) Exp. Eye / Pupil Diameter (mm) Exp. Eye: single topical application
Description: The effect of different concentrations of racemic a-methyl norepinephrine hydrochloride in 0.9 percent (w/v) physiological saline applied singly to one eye of conscious rabbits is summarized in Table I, below.
The reported pressure and pupillary responses are the means of the maximal responses based on the time courses of the responses in pairs of eyes of individual rabbits. The number in parentheses denotes the number of experimental subjects.
The mean time course of the ocular response to a 0.5 percent (w/v) solution of racemic a-methyl norepinephrine in 0.9 percent (w/v) physiological saline applied unilaterally to conscious rabbits is shown in Table II, below.
The drug was applied unilaterally (treated eye). In the third column is reported the mean pressure difference in pairs of eyes of individual rabbits. The number in parentheses denotes the number of experimental subjects.
Tables IIIA, IIIB, IV and V, below, summarize the experimental results using racemic a-methyl epinephrine, diester of a-methyl epinephrine, and diester of a-methyl norepinephrine in 0.9 percent (w/v) physiological saline.
The drug was applied unilaterally (Exp. Eye) at T = 0 hr. In the third column is reported the mean pressure difference between pairs of eyes of individual rabbits.

Solubility in water = assay type: physicochemical
[3] = 0.1 percent (w/v), normal subjects
[4] = 0.5 percent (w/v), normal subjects
[5] = tonographic studies on human subjects
[6] = 0.5 percent (w/v), two normal subjects
[7] = 0.5 percent (w/v) solution, eight rabbits, time 0 hours
[8] = 0.5 percent (w/v) solution, eight rabbits, time 0.5 hours
[9] = 0.5 percent (w/v) solution, eight rabbits, time 1.0 hours
[10] = 0.5 percent (w/v) solution, eight rabbits, time 3.0 hours
[11] = 0.5 percent (w/v) solution, eight rabbits, time 5.0 hours
[12] = 0.5 percent (w/v) solution, eight rabbits, time 24.0 hours
[13] = 0.5 percent (w/v), six rabbits, time 0 hours
[14] = 0.5 percent (w/v), six rabbits, time 1 hour
[15] = 0.5 percent (w/v), six rabbits, time 3 hours
[16] = 0.5 percent (w/v), six rabbits, time 4 hours

For CNC(C)C(O)c1ccc(OC(=O)C(C)(C)C)c(OC(=O)C(C)(C)C)c1 (centres unmarked) [dipivaloyl a-methyl epinephrine], which blood pressure [1] is on record?
Its blood pressure is “No decrease”.

And the heart rate [1]?
Its heart rate is “No decrease”.

And the “intraocular pressure of the treated eye” value ([2]; one drop of 0.05 percent (w/v), three normal human subjects, at 1 and 3 hours)?
Its value is “decreased”.

Which intraocular pressure response [2, 3] does the source give for CC(C)(C)NC[C@H](O)COc1nsnc1N1CCOCC1 [timolol maleate, reference compound] here?
Its intraocular pressure response is “no demonstrable pressure response”.

What about the intraocular pressure response [2, 4] of the same compound?
The intraocular pressure response was “did give a pressure response”.

What about the pupillary response ([2]; normal subjects, concentration not given) of the same compound?
Its pupillary response is “lack of pupillary response”.

What about the outflow facility [2, 5] of the same compound?
Its outflow facility is “no effect”.

What does the source list for CNC(C)C(O)c1ccc(O)c(O)c1 (stereo not drawn) [α-methyl Epinephrine Hydrochloride, a-methyl epinephrine hydrochloride]?
lowering intraocular pressure (intraocular pressure): inactive; intraocular pressure in the treated eyes [2, 6]: significant decrease; mydriatic response [2, 6]: not associated with a mydriatic response; time to development of the decrease of intraocular pressure [2, 6]: ≤ 1 h; Intraocular Pressure (mm Hg) Mean Δ Control-Exp. (conscious rabbits; [7]): −0.1 ± 0.2 mm Hg; Intraocular Pressure (mm Hg) Treated Eye (conscious rabbits; [7]): 22.7 ± 0.6 mm Hg; Intraocular Pressure (mm Hg) Mean Δ Control-Exp. (conscious rabbits; [8]): 3.3 ± 0.8 mm Hg; Intraocular Pressure (mm Hg) Treated Eye (conscious rabbits; [8]): 19.4 ± 1.3 mm Hg; Intraocular Pressure (mm Hg) Mean Δ Control-Exp. (conscious rabbits; [9]): 5.9 ± 0.6 mm Hg; Intraocular Pressure (mm Hg) Treated Eye (conscious rabbits; [9]): 15.9 ± 1.2 mm Hg; Intraocular Pressure (mm Hg) Mean Δ Control-Exp. (conscious rabbits; [10]): 6.0 ± 0.8 mm Hg; Intraocular Pressure (mm Hg) Treated Eye (conscious rabbits; [10]): 14.1 ± 0.5 mm Hg; Intraocular Pressure (mm Hg) Mean Δ Control-Exp. (conscious rabbits; [11]): 5.5 ± 0.7 mm Hg; Intraocular Pressure (mm Hg) Treated Eye (conscious rabbits; [11]): 14.6 ± 0.6 mm Hg; Intraocular Pressure (mm Hg) Mean Δ Control-Exp. (conscious rabbits; [12]): 0.6 ± 0.1 mm Hg; Intraocular Pressure (mm Hg) Treated Eye (conscious rabbits; [12]): 22.9 ± 0.9 mm Hg; intraocular pressure (conscious rabbits): reducing intraocular pressure; pupillary dilation (conscious rabbits): lack of pupillary dilation

Which results are given for CNC(C)C(O)c1ccc(OC(=O)C(C)(C)C)c(OC(=O)C(C)(C)C)c1 (centres unmarked) [diester of a-methyl epinephrine]?
intraocular pressure (conscious rabbits): reducing intraocular pressure; pupillary dilation (conscious rabbits): lack of pupillary dilation

With CC(N)C(O)c1ccc(O)c(O)c1 (racemic) [α-Methyl Norepinephrine, a-methyl norepinephrine] as the compound, how does the lowering intraocular pressure (intraocular pressure) read?
The lowering intraocular pressure was “inactive”.

And the “Intraocular Pressure (mm Hg) Mean Δ” value (conscious rabbits; 0.1 percent wt. by volume)?
Its value is 0.9 ± 0.3 (4) mm Hg.

What about the “Pupil Diameter (mm) Mean Δ” value (conscious rabbits; 0.1 percent wt. by volume) of the same compound?
Its value is 0.9 ± 0.4 (4) mm.

And the “Intraocular Pressure (mm Hg) Exp. Eye” value (conscious rabbits; 0.1 percent wt. by volume)?
The value was 20.6 ± 1.3 mm Hg.

What about the “Pupil Diameter (mm) Exp. Eye” value (conscious rabbits; 0.1 percent wt. by volume) of the same compound?
Its value is 4.6 ± 0.47 mm.

What about the “Intraocular Pressure (mm Hg) Mean Δ” value (conscious rabbits; 0.3 percent wt. by volume) of the same compound?
Its value is 4.5 ± 0.3 (4) mm Hg.

And the “Pupil Diameter (mm) Mean Δ” value (conscious rabbits; 0.3 percent wt. by volume)?
The value was 1.2 ± 0.63 (4) mm.

And the “Intraocular Pressure (mm Hg) Exp. Eye” value (conscious rabbits; 0.3 percent wt. by volume)?
Its value is 16.5 ± 0.3 mm Hg.

And the “Pupil Diameter (mm) Exp. Eye” value (conscious rabbits; 0.3 percent wt. by volume)?
Its value is 4.4 ± 0.9 mm.

What about the “Intraocular Pressure (mm Hg) Mean Δ Control-Exp.” value (conscious rabbits; [13]) of the same compound?
Its value is 0.3 ± 0.3 (6) mm Hg.

What about the “Intraocular Pressure (mm Hg) Treated Eye” value (conscious rabbits; [13]) of the same compound?
Its value is 22.8 ± 1.4 (6) mm Hg.

What about the “Intraocular Pressure (mm Hg) Mean Δ Control-Exp.” value (conscious rabbits; [14]) of the same compound?
The value was 2.8 ± 0.9 (6) mm Hg.

What about the “Intraocular Pressure (mm Hg) Treated Eye” value (conscious rabbits; [14]) of the same compound?
Its value is 20.2 ± 1.6 (6) mm Hg.

What about the “Intraocular Pressure (mm Hg) Mean Δ Control-Exp.” value (conscious rabbits; [15]) of the same compound?
Its value is 7.2 ± 0.9 (6) mm Hg.

What about the “Intraocular Pressure (mm Hg) Treated Eye” value (conscious rabbits; [15]) of the same compound?
The value was 15.8 ± 1.3 (6) mm Hg.

And the “Intraocular Pressure (mm Hg) Mean Δ Control-Exp.” value (conscious rabbits; [16])?
The value was 6.3 ± 1.2 (6) mm Hg.

What about the “Intraocular Pressure (mm Hg) Treated Eye” value (conscious rabbits; [16]) of the same compound?
Its value is 16.7 ± 1.2 (6) mm Hg.

And the “Intraocular Pressure (mm Hg) Mean Δ” value (conscious rabbits; 0.5 percent wt. by volume)?
The value was 6.0 ± 0.3 (4) mm Hg.

And the “Pupil Diameter (mm) Mean Δ” value (conscious rabbits; 0.5 percent wt. by volume)?
Its value is 0.9 ± 0.5 (4) mm.

And the “Intraocular Pressure (mm Hg) Exp. Eye” value (conscious rabbits; 0.5 percent wt. by volume)?
The value was 15.5 ± 0.8 mm Hg.

And the “Pupil Diameter (mm) Exp. Eye” value (conscious rabbits; 0.5 percent wt. by volume)?
Its value is 3.9 ± 0.4 mm.

And the “Intraocular Pressure (mm Hg) Mean Δ” value (conscious rabbits; 0.8 percent wt. by volume)?
The value was 6.8 ± 0.7 (6) mm Hg.

What about the “Pupil Diameter (mm) Mean Δ” value (conscious rabbits; 0.8 percent wt. by volume) of the same compound?
The value was 1.1 ± 0.30 (6) mm.

And the “Intraocular Pressure (mm Hg) Exp. Eye” value (conscious rabbits; 0.8 percent wt. by volume)?
Its value is 15.7 ± 1.1 mm Hg.

And the “Pupil Diameter (mm) Exp. Eye” value (conscious rabbits; 0.8 percent wt. by volume)?
Its value is 4.8 ± 0.42 mm.

And the “Intraocular Pressure (mm Hg) Mean Δ” value (conscious rabbits; 1.0 percent wt. by volume)?
The value was 7.4 ± 0.7 (10) mm Hg.

What about the “Pupil Diameter (mm) Mean Δ” value (conscious rabbits; 1.0 percent wt. by volume) of the same compound?
Its value is 3.4 ± 0.4 (10) mm.

And the “Intraocular Pressure (mm Hg) Exp. Eye” value (conscious rabbits; 1.0 percent wt. by volume)?
Its value is 14.3 ± 0.6 mm Hg.

What about the “Pupil Diameter (mm) Exp. Eye” value (conscious rabbits; 1.0 percent wt. by volume) of the same compound?
Its value is 7.2 ± 0.51 mm.

For CC(N)C(O)c1ccc(OC(=O)C(C)(C)C)c(OC(=O)C(C)(C)C)c1 (centres unmarked) [Compound 5, 4-(2-amino-1-hyaroxypropyt)-1,2-dipivaioyioxybenzene hydrochloride], which solubility in water (Solubility in water) is on record?
The solubility in water was “freely soluble in water”.

Which pupillary response ([2]; 0.1 percent (w/v), normal subject) does the source give for CNC(C)C(O)c1ccc(OC(=O)C(C)(C)C)c(OC(=O)C(C)(C)C)c1 (centres unmarked) [4-(2-N-methylamino-1-hydroxypropyl)-1,2-dipivaloyloxybenzene hydrochloride] here?
Its pupillary response is “almost complete lack of pupillary response”.

And the “intraocular pressures of the treated eyes” value ([2]; 24 hours)?
Its value is “recovered”.

And the “intraocular pressures of the treated eyes” value ([2]; at 1 and 5 hours)?
Its value is “significantly decreased”.

What about the outflow facility [2, 5] of the same compound?
Its outflow facility is “increase”.

What about the “rate of formation of the aqueous humor” value [2, 5] of the same compound?
Its value is “reduction”.

What does the source list for CC(N)C(O)c1ccc(OC(=O)C(C)(C)C)c(OC(=O)C(C)(C)C)c1 (centres unmarked) [diester of a-methyl norepinephrine]?
intraocular pressure (conscious rabbits): reducing intraocular pressure; pupillary dilation (conscious rabbits): lack of pupillary dilation

Which intraocular pressure response [2, 3] does the source give for CNCC(O)c1ccc(OC(=O)C(C)(C)C)c(OC(=O)C(C)(C)C)c1 (centres unmarked) [dipivaloyl epinephrine, reference compound] here?
Its intraocular pressure response is “no effect on intraocular pressure”.

And the intraocular pressure response [2, 4]?
Its intraocular pressure response is “significant decrease of intraocular pressure”.

What about the mydriasis [2, 4] of the same compound?
The mydriasis was “marked mydriasis”.

What about the “intraocular pressure response at 1 hour” value ([2]; normal subjects, 1 hour after application) of the same compound?
The value was “no significant pressure response”.
